This passage reports ΔTm and IC50 results from patent publication US20240317727A1 (Duke University, priority 2018, published 2024).

Where two headings read alike, the source gives them in different places. Some results are limits rather than exact numbers.

In experiment [1] the target is T1, purified recombinant human HSF1 (HSF1 DNA binding domain) (Homo sapiens, UniProt Q00613).
T1 sequence (Q00613 15-120): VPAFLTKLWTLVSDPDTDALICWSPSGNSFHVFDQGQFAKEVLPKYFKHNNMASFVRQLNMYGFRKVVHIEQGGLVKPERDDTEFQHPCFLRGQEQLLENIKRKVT
The experiment in a line: Melting temperature of HSF1 DBD with HSF1 degrader compounds (Sypro orange). The following applies: read-out: ΔTm (° C.). The protocol: The melting temperature (ΔTm) for purified recombinant human HSF1 (HSF1 DNA binding domain) was determined in the presence of HSF1 degrader compounds shown in Table 5 and compared to the solvent DMSO. Sypro orange dye was added to the HSF1 DBD (5 micromolar final concentration) in buffer, mixed and distributed to wells in 384 well microtiter plates. HSF1 degrader compound (12.5 micromolar) or DMSO solvent was added to three replicate wells per compound concentration, mixed and plates loaded into a Quant Studio thermnocycler and run on a temperature gradient from 25° C. to 85° C. with increments of 0.5° C. steps. Melting curves were obtained and analyzed using the ThermnoFisher Shift Software 1.4 fitted with a Boltzmann equation to determine the change in melting temperature of the protein in the presence of DMSO as compared to compound. The difference in the melting temperature under these two conditions was assigned as the change in melting temperature of ΔTm.

Experiment [2] concerns C4-2 prostate cancer cells. The experiment in a line: C4-2 cell proliferation, Cell Titre Glo. Type of experiment: cell-based. The following applies: Homo sapiens, 48-hour period, 9-point dilution series, read-out: Cell Viability IC50. The method, then: Next, cell viability of C4-2 prostate cancer cells was determined. C4-2 prostate cancer cells were grown in RMPI-1640 (no L-glutamine, Gibco 21870076) supplemented with 10% fetal bovine […] (non-heat-inactivated, Cytiva Hyclone SH30071.03). […] A 9-point dilution series was used to assess the ability of each compound to inhibit the growth of C4-2 prostate cancer cells over a 48-hour period, as compared to negative control solvent, DMSO. Cell proliferation was measured by the Cell Titre Glo assay using 384 well microtiter plate reader to quantitate luminescence. The IC50 was determined from the values obtained.

The target of experiment [3] is T2, recombinant HSF1 DNA-binding domain (DBD) (Homo sapiens, UniProt Q00613).
T2 sequence (Q00613 15-120): T1 sequence (Q00613 15-120)
The experiment in a line: Differential Scanning Fluorimetry (DSF), HSF1 DBD melting temperature. To be noted: Table 3; 5 μM HSF1 DBD, 25PM Compound; positive = stabilizes, negative = destabilizes HSF1.

The mark [4] stands for this setting: 12.5 micromolar compound, 5 micromolar HSF1 DBD, compared to DMSO.

Usually ΔTm stands for the shift of the melting midpoint relative to a reference. One may read the IC50 as the concentration needed to halve the response being measured. `Cc1cc(NC(=O)Nc2ccc3c(c2)S(=O)(=O)C=C3)ccc1C#N` [Compound 261, 1-(4-cyano-3-methylphenyl)-3-(1,1-dioxidobenzo[b]thiophen-6-yl)urea]: the ΔTm at 12.5 µM in experiment [1] (setting [4]) came to 1.06 °C. In addition, the IC50 in experiment [2] stood at 2.29 µM.
On the same counts, the results for `CC(C)(C)c1cc(NC(=O)Nc2ccc3c(c2)S(=O)(=O)C=C3)ccc1C#N` [Compound 264, 1-(3-(tert-butyl)-4-cyanophenyl)-3-(1,1-dioxidobenzo[b]thiophen-6-yl)urea] are 1.27 °C and 2.65 µM.
The like results for `N#Cc1cccc(NC(=O)Nc2ccc3c(c2)S(=O)(=O)C=C3)n1` [Compound 267, 1-(6-cyanopyridin-2-yl)-3-(1,1-dioxidobenzo[b]thiophen-6-yl)urea] were, in that order, -0.19 °C and greater than 10 µM.
On the same counts, the results for `N#Cc1cnc(NC(=O)Nc2ccc3c(c2)S(=O)(=O)C=C3)cn1` [Compound 268, 1-(5-cyanopyrazin-2-yl)-3-(1,1-dioxidobenzo[b]thiophen-6-yl)urea] are 0.39 °C and 7.79 µM.
Regarding `N#Cc1ncc(NC(=O)Nc2ccc3c(c2)S(=O)(=O)C=C3)cn1` [Compound 269], the ΔTm at 12.5 µM in experiment [1] (setting [4]) was 0.77 °C. Besides, in experiment [2], the IC50 was greater than 10 µM.
Regarding `N#Cc1cnc(NC(=O)Nc2ccc3c(c2)S(=O)(=O)C=C3)nc1` [Compound 270, 1-(5-cyanopyrimidin-2-yl)-3-(1,1-dioxidobenzo[b]thiophen-6-yl)urea], in experiment [1] (setting [4]), the ΔTm at 12.5 µM turned out to be 0.01 °C. For the same molecule, the IC50 in experiment [2] was greater than 10 µM.
On the same counts, the results for `N#Cc1ccc(NC(=O)Nc2ccc3c(c2)C=CS3(=O)=O)o1` [Compound 271, 1-(5-cyanofuran-2-yl)-3-(1,1-dioxidobenzo[b]thiophen-5-yl)urea] are 0.02 °C and greater than 10 µM.
On the same counts, the results for `N#Cc1ccc(NC(=O)Nc2ccc3c(c2)S(=O)(=O)c2ccccc2-3)cc1` [Compound 277, 1-(4-cyanophenyl)-3-(5,5-dioxidodibenzo[b,d]thiophen-3-yl)urea] are -2.3 °C and 5.65 µM.
On the same counts, the results for `N#Cc1ccc(NC(=O)Nc2ccc3c(c2)S(=O)(=O)CCC3)cc1` [Compound 279] are 1.29 °C and greater than 10 µM.
Turning to `N#Cc1ccc(NC(=O)Nc2ccc3c(c2)C(=O)CC3)cc1` [Compound 283, 1-(4-cyanophenyl)-3-(3-oxo-2,3-dihydro-1H-inden-5-yl)urea], the ΔTm at 12.5 µM in experiment [1] (setting [4]) is 0.1 °C. In addition, the IC50 in experiment [2] is greater than 10 µM.
`CN(C)CCc1cc(NC(=O)Nc2ccc(Cl)c(S(=O)(=O)C(F)(F)F)c2)ccc1C#N` [Compound 284, 1-(4-chloro-3-((trifluoromethyl)sulfonyl)phenyl)-3-(4-cyano-3-(2-(dimethylamino)ethyl)phenyl)urea]: the ΔTm at 12.5 µM in experiment [1] worked out at 0.62 °C. Also, in experiment [2], the half-maximal inhibitory concentration (IC50) is greater than 10 µM.
On to `N#Cc1ccc(NC(=O)Nc2ccc(Cl)c(S(=O)(=O)C(F)(F)F)c2)cc1CN1CCOCC1` [Compound 285, 1-(4-chloro-3-((trifluoromethyl)sulfonyl)phenyl)-3-(4-cyano-3-(morpholinomethyl)phenyl)urea], for which the ΔTm at 12.5 µM in experiment [1] amounted to 1.23 °C. In addition, the ΔTm at 25 µM in experiment [3] is -7.52 °C. For the same molecule, the IC50 in experiment [2] was 4.81 µM.
The like results for `N#Cc1ccc(NC(=O)Nc2ccc(Cl)c(S(=O)(=O)C(F)(F)F)c2)cc1CCN1CCOCC1` [Compound 286, 1-(4-chloro-3-((trifluoromethyl)sulfonyl)phenyl)-3-(4-cyano-3-(2-morpholinoethyl)phenyl)urea] were, in that order, 1.64 °C, -6.23 °C and 5.95 µM.
Regarding `N#Cc1ccc(NC(=O)Nc2ccc(CN3CCOCC3)c(S(=O)(=O)C(F)(F)F)c2)cc1` [Compound 288, 1-(4-cyanophenyl)-3-(4-(morpholinomethyl)-3-((trifluoromethyl)sulfonyl)phenyl)urea], in experiment [1], the ΔTm at 12.5 µM was 2.24 °C. In addition, the ΔTm at 25 µM in experiment [3] was determined as 3.27 °C. Moreover, the IC50 in experiment [2] came to 8.9 µM.
With `N#Cc1ccc(NC(=O)Nc2ccc(CCN3CCOCC3)c(S(=O)(=O)C(F)(F)F)c2)cc1` [Compound 289, 1-(4-cyanophenyl)-3-(4-(2-morpholinoethyl)-3-((trifluoromethyl)-sulfonyl)phenyl)urea], the ΔTm at 12.5 µM in experiment [1] (setting [4]) was 2.6 °C. The ΔTm at 25 µM in experiment [3] stood at 3.2 °C. In addition, the IC50 in experiment [2] stood at 8.91 µM.
Regarding `CN(C)CCc1cc(NC(=O)Nc2ccc3c(c2)S(=O)(=O)C=C3)ccc1C#N` [Compound 290, 1-(4-cyano-3-(2-(dimethylamino)ethyl)phenyl)-3-(1,1-dioxidobenzo[b]thiophen-6-yl)urea], the ΔTm at 12.5 µM in experiment [1] was -0.3 °C. The ΔTm at 25 µM in experiment [3] is 3.28 °C. The IC50 in experiment [2] was greater than 10 µM.
The like results for `N#Cc1ccc(NC(=O)Nc2ccc3c(c2)S(=O)(=O)C=C3)cc1CN1CCOCC1` [Compound 291, 1-(4-cyano-3-(morpholinomethyl)phenyl)-3-(1,1-dioxidobenzo[b]thiophen-6-yl)urea] were, in that order, -0.44 °C, -4.4 °C and greater than 10 µM.
For the molecule `N#Cc1ccc(NC(=O)Nc2ccc3c(c2)S(=O)(=O)C=C3)cc1CCN1CCOCC1` [Compound 292, 1-(4-cyano-3-(2-morpholinoethyl)phenyl)-3-(1,1-dioxidobenzo[b]thiophen-6-yl)urea], the ΔTm at 12.5 µM in experiment [1] was -0.76 °C. In addition, the ΔTm at 25 µM in experiment [3] was found to be 3.33 °C. Also, the IC50 in experiment [2] was greater than 10 µM.
On the same counts, the results for `N#Cc1ccc(NC(=O)Nc2ccc(Cl)c(S(=O)(=O)C(F)(F)F)c2)cc1OCCN1CCOCC1` [Compound 293, 1-(4-chloro-3-((trifluoromethyl)sulfonyl)phenyl)-3-(4-cyano-3-(2-morpholinoethoxy)phenyl)urea] are 1.13 °C, -4.19 °C and 6.05 µM.
Take `N#Cc1ccc(NC(=O)Nc2ccc(OCCN3CCOCC3)c(S(=O)(=O)C(F)(F)F)c2)cc1` [Compound 294, 1-(4-cyanophenyl)-3-(4-(2-morpholinoethoxy)-3-((trifluoromethyl)sulfonyl)phenyl)urea]: the ΔTm at 12.5 µM in experiment [1] stood at 2.24 °C. The ΔTm at 25 µM in experiment [3] is -9.02 °C. Moreover, the IC50 in experiment [2] was found to be 9.82 µM.
As for `N#Cc1ccc(NC(=O)Nc2ccc3c(c2)S(=O)(=O)C=C3)cc1OCCN1CCOCC1` [Compound 295, 1-(4-cyano-3-(2-morpholinoethoxy)phenyl)-3-(1,1-dioxidobenzo[b]thiophen-6-yl)urea], in experiment [1], the ΔTm at 12.5 µM is -0.03 °C. Further, in experiment [2], the IC50 is greater than 10 µM.
As to `CN(C)CCc1cc(C#N)ccc1NC(=O)Nc1ccc(Cl)c(S(=O)(=O)C(F)(F)F)c1` [Compound 296, 1-(4-chloro-3-((trifluoromethyl)sulfonyl)phenyl)-3-(4-cyano-2-(2-(dimethylamino)ethyl)phenyl)urea], the ΔTm at 12.5 µM in experiment [1] worked out at 0.43 °C. Further, the ΔTm at 25 µM in experiment [3] was -5.21 °C. In addition, the IC50 in experiment [2] was greater than 10 µM.
As to `N#Cc1ccc(NC(=O)Nc2ccc(Cl)c(S(=O)(=O)C(F)(F)F)c2)c(CN2CCOCC2)c1` [Compound 297, 1-(4-chloro-3-((trifluoromethyl)sulfonyl)phenyl)-3-(4-cyano-2-(morpholinomethyl)phenyl)urea], the ΔTm at 12.5 µM in experiment [1] (setting [4]) stood at 1.1 °C. Also, in experiment [3], the thermal shift (ΔTm) at 25 µM was 2.08 °C. Moreover, in experiment [2], the IC50 was greater than 10 µM.
Take `N#CC1CCC(NC(=O)Nc2ccc(Cl)c(C(F)(F)F)c2)CC1` (centres unmarked) [Compound 300, 1-(4-chloro-3-(trifluoromethyl)phenyl)-3-(4-cyanocyclohexyl)urea]: the ΔTm at 12.5 µM in experiment [1] was -0.73 °C. Further, the IC50 in experiment [2] was greater than 10 µM.
